# Measured values as given in patent publication US11746116B2, “Antibiotic resistance breakers” (KING'S COLLEGE LONDON, priority 2017, dated 2023).
# Several values for one entry are separate records, joined by “and”; a condition that tells them apart may be missing. Equal entries are not always repeated.
# How the values were obtained:
# M6 = assay: MIC, microdilution broth method; assay type: cell-based
# AYE = assay: MIC, microdilution broth method; assay type: cell-based, Acinetobacter baumannii
# [1] = tested on: multidrug resistant strains; assay: Reserpine growth assay in several multidrug resistant strains (FIG. 27); assay type: cell-based; conditions: compared to ML-83-009 or levofloxacin
# Description: Reserpine was added at a final concentration of 10 μg/mL (made up at 40 μg/mL in TSB, 50 μL per well). The bacteria were added at an OD of 0.01 in TSB (100 μL/well). The plate was a normal clear plate as used for MICs. OD was read every 30 minutes for 9 hours (the literature states 7 hours, but this is strain-dependent).
# VRE12201 = assay: MIC, microdilution broth method; assay type: cell-based, Enterococcus faecalis
# MSSA9144 = assay: MIC, microdilution broth method; assay type: cell-based, Staphylococcus aureus
# [2] = target: Safetyscreen44 off target panel (Homo sapiens, UniProt P29274)
# [3] = target: Safetyscreen44 off target panel (Homo sapiens, UniProt P25101)
# [4] = target: Safetyscreen44 off target panel (Homo sapiens, UniProt P37288)
# [5] = target: Safetyscreen44 off target panel (Homo sapiens, UniProt P04150)
# [6] = target: Safetyscreen44 off target panel (Homo sapiens, UniProt P23219)
# [7] = target: Safetyscreen44 off target panel (Homo sapiens, UniProt P35367)
# [8] = target: Safetyscreen44 off target panel (Homo sapiens, UniProt P32238)
# [9] = target: Safetyscreen44 off target panel (Homo sapiens, UniProt P25021)
# [10] = target: Safetyscreen44 off target panel (Homo sapiens, UniProt P06239)
# [11] = target: Safetyscreen44 off target panel (Homo sapiens, UniProt Q14432)
# [12] = target: Safetyscreen44 off target panel (Homo sapiens, UniProt P11229)
# [13] = target: Safetyscreen44 off target panel (Homo sapiens, UniProt P21554)
# [14] = target: Safetyscreen44 off target panel (Homo sapiens, UniProt P08172)
# [15] = target: Safetyscreen44 off target panel (Homo sapiens, UniProt P31645)
# [16] = target: Safetyscreen44 off target panel (Homo sapiens, UniProt P20309)
# [17] = target: Safetyscreen44 off target panel (Homo sapiens, UniProt P43681)
# [18] = target: Safetyscreen44 off target panel (Rattus norvegicus, UniProt P28564)
# [19] = target: Safetyscreen44 off target panel (Homo sapiens, UniProt P22303)
# [20] = tested on: Safetyscreen44 off target panel
# [21] = target: Safetyscreen44 off target panel (Homo sapiens, UniProt P10275)
# [22] = target: Safetyscreen44 off target panel (Homo sapiens, UniProt P08908)
# [23] = target: Safetyscreen44 off target panel (Homo sapiens, UniProt P34972)
# [24] = target: Safetyscreen44 off target panel (Homo sapiens, UniProt P07550)
# [25] = target: Safetyscreen44 off target panel (Rattus norvegicus, UniProt P21396)
# [26] = target: Safetyscreen44 off target panel (Rattus norvegicus, UniProt P34975)
# [27] = target: Safetyscreen44 off target panel (Homo sapiens, UniProt P41143)
# [28] = target: Safetyscreen44 off target panel (Homo sapiens, UniProt P23975)
# [29] = target: Safetyscreen44 off target panel (Homo sapiens, UniProt P08588)
# [30] = target: Safetyscreen44 off target panel (Homo sapiens, UniProt P35354)
# [31] = target: Safetyscreen44 off target panel (Homo sapiens, UniProt P28223)
# [32] = target: Safetyscreen44 off target panel (Homo sapiens, UniProt P41595)
# [33] = tested on: Staphylococcus aureus ATCC29213; assay: Murine thigh infection model, thigh bacterial burden; assay type: in vivo; conditions: neutropenic mice; for Log10 reduction from vehicle control / Thigh bacterial burden, Group Geometric mean / Thigh bacterial burden, Log10 Group Geometric mean: 8 h, 14 h post-infection, 18 h post infection; for decrease of thigh bacterial burden compared to vehicle group: 8 h and 14 h post infection, burden 18 h post infection
# [34] = ESKAPE panel, Gram-negative, in µg/mL
# [35] = ESKAPE panel, Gram-positive, in µg/mL
# Sequence of Safetyscreen44 off target panel (Homo sapiens, UniProt P41595) (P41595 whole entry): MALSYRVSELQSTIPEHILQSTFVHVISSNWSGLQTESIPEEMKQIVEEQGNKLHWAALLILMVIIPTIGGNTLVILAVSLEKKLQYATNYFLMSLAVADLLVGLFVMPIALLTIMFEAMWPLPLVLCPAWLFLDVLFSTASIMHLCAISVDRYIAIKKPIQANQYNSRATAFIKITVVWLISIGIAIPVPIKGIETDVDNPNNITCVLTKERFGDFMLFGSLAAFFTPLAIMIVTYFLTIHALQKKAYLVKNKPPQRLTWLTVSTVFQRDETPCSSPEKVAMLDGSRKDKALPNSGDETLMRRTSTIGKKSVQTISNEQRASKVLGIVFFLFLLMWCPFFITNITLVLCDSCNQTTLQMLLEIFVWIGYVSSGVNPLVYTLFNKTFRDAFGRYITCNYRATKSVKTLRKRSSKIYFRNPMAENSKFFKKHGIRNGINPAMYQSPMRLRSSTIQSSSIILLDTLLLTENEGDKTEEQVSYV
# Sequence of Safetyscreen44 off target panel (Homo sapiens, UniProt P21554) (P21554 whole entry): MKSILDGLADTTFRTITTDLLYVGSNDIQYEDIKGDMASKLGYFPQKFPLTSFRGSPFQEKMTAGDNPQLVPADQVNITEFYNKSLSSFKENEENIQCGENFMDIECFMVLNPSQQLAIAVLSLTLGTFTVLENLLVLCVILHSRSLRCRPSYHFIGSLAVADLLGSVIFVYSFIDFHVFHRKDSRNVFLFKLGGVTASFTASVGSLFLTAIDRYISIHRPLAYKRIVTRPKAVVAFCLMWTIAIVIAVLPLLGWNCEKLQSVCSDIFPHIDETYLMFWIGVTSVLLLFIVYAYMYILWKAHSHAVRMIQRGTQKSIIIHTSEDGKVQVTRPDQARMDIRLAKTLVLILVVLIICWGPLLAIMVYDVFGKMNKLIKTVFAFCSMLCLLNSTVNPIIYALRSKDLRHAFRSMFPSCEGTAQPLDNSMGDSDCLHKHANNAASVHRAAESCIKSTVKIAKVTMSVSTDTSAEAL
# Sequence of Safetyscreen44 off target panel (Homo sapiens, UniProt P37288) (P37288 whole entry): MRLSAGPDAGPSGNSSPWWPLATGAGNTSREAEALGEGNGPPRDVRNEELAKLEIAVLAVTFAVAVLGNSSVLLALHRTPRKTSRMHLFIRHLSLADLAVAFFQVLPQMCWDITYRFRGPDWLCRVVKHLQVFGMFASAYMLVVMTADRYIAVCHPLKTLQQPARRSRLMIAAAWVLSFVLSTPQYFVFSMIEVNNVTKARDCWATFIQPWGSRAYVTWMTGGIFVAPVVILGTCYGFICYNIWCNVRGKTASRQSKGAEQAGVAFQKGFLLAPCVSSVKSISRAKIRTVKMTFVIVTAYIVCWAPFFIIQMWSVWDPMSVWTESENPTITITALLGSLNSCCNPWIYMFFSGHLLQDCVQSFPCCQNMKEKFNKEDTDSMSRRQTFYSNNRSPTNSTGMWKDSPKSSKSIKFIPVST
# Sequence of Safetyscreen44 off target panel (Homo sapiens, UniProt P25101) (P25101 21-427): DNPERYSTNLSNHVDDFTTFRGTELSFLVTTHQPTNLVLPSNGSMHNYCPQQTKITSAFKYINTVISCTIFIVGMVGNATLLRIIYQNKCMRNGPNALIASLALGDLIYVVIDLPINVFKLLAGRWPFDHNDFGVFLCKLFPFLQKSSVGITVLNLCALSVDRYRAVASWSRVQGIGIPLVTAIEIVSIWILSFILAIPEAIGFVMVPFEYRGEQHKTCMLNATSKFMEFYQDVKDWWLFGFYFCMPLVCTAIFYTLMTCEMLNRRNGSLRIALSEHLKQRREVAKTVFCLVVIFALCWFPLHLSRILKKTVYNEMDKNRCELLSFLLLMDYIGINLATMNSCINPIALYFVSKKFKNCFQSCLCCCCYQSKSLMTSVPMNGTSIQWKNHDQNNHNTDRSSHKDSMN
# Sequence of Safetyscreen44 off target panel (Homo sapiens, UniProt P22303) (P22303 32-614): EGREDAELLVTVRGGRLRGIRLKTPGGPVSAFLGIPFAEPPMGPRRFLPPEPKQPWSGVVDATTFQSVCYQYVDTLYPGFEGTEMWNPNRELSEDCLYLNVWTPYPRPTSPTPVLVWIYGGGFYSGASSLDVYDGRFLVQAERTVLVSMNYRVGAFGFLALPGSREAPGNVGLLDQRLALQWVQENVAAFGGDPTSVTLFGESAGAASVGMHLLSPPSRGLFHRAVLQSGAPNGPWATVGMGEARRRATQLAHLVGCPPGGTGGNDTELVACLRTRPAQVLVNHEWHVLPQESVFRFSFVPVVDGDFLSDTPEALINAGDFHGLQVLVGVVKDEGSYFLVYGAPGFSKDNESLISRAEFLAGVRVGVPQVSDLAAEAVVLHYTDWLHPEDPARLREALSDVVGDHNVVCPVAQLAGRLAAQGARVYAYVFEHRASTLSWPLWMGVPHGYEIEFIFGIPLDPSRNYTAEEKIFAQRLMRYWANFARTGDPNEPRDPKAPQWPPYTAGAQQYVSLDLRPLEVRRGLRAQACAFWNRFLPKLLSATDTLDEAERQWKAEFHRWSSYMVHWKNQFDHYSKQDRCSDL
# Sequence of Safetyscreen44 off target panel (Homo sapiens, UniProt P35367) (P35367 whole entry): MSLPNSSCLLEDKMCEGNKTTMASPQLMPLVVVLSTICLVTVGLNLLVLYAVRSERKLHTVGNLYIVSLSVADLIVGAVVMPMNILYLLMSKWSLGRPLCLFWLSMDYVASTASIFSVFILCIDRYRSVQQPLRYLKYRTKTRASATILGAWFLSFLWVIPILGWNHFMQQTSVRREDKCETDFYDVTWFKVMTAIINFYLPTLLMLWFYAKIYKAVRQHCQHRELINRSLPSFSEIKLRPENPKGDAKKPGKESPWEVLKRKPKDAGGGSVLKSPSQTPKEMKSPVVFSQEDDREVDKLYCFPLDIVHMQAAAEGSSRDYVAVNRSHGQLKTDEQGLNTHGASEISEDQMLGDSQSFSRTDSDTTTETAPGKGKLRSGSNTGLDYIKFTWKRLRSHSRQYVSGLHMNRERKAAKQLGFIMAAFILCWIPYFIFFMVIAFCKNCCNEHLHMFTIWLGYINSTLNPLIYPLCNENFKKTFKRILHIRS
# Sequence of Safetyscreen44 off target panel (Rattus norvegicus, UniProt P34975) (P34975 whole entry): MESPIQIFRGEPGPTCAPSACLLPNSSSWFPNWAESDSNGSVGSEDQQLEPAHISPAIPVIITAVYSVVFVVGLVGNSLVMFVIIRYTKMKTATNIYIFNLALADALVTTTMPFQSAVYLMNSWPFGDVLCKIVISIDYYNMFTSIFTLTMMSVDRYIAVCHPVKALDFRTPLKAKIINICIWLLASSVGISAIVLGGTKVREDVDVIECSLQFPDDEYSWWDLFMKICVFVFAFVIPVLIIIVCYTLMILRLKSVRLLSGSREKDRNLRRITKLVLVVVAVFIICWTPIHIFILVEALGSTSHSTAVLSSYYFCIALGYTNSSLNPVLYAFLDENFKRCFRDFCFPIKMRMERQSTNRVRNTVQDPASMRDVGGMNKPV
# Sequence of Safetyscreen44 off target panel (Homo sapiens, UniProt P08588) (P08588 whole entry): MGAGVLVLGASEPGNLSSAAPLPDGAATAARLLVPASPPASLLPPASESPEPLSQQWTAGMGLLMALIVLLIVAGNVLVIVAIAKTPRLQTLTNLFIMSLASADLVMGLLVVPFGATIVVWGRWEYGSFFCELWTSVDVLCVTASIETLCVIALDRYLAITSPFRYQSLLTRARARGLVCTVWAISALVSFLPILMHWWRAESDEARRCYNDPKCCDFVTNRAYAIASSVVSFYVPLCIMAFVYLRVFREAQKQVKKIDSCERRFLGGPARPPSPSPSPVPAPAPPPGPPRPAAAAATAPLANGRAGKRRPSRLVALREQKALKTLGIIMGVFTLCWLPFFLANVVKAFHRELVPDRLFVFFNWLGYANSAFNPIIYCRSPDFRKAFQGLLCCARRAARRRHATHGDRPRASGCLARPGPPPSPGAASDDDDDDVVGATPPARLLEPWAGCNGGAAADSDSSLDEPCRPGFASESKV
# Sequence of Safetyscreen44 off target panel (Homo sapiens, UniProt Q14432) (Q14432 whole entry): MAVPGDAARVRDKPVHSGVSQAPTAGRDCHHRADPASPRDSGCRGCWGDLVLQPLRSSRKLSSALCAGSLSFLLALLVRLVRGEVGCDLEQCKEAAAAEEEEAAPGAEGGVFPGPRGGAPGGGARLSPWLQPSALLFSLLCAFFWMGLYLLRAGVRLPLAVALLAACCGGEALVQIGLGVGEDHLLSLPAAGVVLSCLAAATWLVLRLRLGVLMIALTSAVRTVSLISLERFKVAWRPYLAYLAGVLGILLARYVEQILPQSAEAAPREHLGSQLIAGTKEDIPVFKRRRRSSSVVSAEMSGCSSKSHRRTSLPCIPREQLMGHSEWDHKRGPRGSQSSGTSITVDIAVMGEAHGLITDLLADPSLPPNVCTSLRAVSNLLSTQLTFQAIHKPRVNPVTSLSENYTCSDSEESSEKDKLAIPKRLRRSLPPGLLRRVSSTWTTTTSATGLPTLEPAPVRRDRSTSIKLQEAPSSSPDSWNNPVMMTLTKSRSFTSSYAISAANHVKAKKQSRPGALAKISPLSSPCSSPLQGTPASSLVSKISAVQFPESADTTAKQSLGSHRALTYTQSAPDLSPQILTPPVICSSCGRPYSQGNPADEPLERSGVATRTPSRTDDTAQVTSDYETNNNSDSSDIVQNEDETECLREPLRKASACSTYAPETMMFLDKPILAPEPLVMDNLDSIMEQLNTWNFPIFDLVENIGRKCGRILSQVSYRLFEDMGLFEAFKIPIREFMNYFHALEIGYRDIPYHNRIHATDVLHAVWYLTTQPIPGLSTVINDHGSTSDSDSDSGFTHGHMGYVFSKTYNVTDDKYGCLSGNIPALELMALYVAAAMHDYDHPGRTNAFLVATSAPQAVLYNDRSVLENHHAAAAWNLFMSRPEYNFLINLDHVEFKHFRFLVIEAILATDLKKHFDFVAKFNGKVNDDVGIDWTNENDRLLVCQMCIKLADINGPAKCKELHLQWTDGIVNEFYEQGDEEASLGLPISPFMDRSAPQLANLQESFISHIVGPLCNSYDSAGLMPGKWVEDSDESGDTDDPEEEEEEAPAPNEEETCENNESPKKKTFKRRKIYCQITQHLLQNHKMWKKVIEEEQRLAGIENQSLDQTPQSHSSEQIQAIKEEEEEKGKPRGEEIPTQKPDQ
compound,measurement,setting,value
"Cc1cc(C)nc(N[C@@H]2CCN(c3c(F)cc4c(=O)c(C(=O)O)cn5c4c3OC[C@@H]5C)C2)n1 [KSN-BL7, (S)-10-((R)-3-((4,6-dimethylpyrimidin-2-yl)amino)pyrrolidin-1-yl)-9-fluoro-3-methyl-7-oxo-2,3-dihydro-7H-[1,4]oxazino[2,3,4-ij]quinoline-6-carboxylic acid]","MIC, M6",M6; [34],2
same,MIC,M6; Klebsiella pneumoniae,2 µg/mL
same,MIC,AYE; Acinetobacter baumannii,8 µg/mL
same,"MIC, AYE",AYE; [34],8
same,efflux from the bacteria (reserpine growth assay),[1],reduced efflux
same,"MIC, VRE12201",VRE12201; [35],0.0313
same,MIC,VRE12201; Enterococcus faecalis,0.03 µg/mL
same,"MIC, MSSA9144",MSSA9144; [35],≤0.0039
same,MIC,MSSA9144; Staphylococcus aureus,≤ 0.0039 µg/mL
C[C@H]1COc2c(N3CC[C@@H](Nc4ncccn4)C3)c(F)cc3c(=O)c(C(=O)O)cn1c23 [KSN-82-L22],"% inhibition, A2A (h) (agonist radioligand)",[2],53.628%
same,"% inhibition, ETA (h) (agonist radioligand)",[3],−5.236%
same,"% inhibition, V1a (h) (agonist radioligand)",[4],−12.5662%
same,"% inhibition, GR (h) (agonist radioligand)",[5],3.456%
same,"% inhibition, COX1 (h)",[6],30.3185%
same,"% inhibition, H1 (h) (antagonist radioligand)",[7],5.564%
same,"% inhibition, CCK1 (CCKA) (h) (agonist radioligand)",[8],−2.038%
same,"% inhibition, H2 (h) (antagonist radioligand)",[9],−40.1709%
same,"% inhibition, Lck kinase (h)",[10],−2.891%
same,"% inhibition, PDE3A (h)",[11],7.502%
same,"% inhibition, M1 (h) (antagonist radioligand)",[12],3.129%
same,"% inhibition, CB1 (h) (agonist radioligand)",[13],1.857%
same,"% inhibition, M2 (h) (antagonist radioligand)",[14],1.066%
same,"% inhibition, 5-HT transporter (h) (antagonist radioligand)",[15],−16.9663%
same,"% inhibition, M3 (h) (antagonist radioligand)",[16],2.273%
same,"% inhibition, N neuronal alpha 4beta 2 (h) (agonist radioligand)",[17],−41.8108%
same,"% inhibition, 5-HT1B (antagonist radioligand)",[18],−16.7063%
same,"% inhibition, acetylcholinesterase (h)",[19],32.9861%
same,"% inhibition, BZD (central) (agonist radioligand)",[20],−44.8289%
same,"% inhibition, Ca2+ channel (L, dihydropyridine site) (antagonist radioligand)",[20],6.049%
same,"% inhibition, D2S (h) (agonist radioligand)",[20],−7.807%
same,"% inhibition, NMDA (antagonist radioligand)",[20],12.6124%
same,"% inhibition, Na+ channel (site 2) (antagonist radioligand)",[20],23.6539%
same,"% inhibition, PDE4D2 (h)",[20],14.8003%
same,"% inhibition, alpha 1A (h) (antagonist radioligand)",[20],11.5312%
same,"% inhibition, AR (h) (agonist radioligand)",[21],4.241%
same,"% inhibition, 5-HT1A(h) (agonist radioligand)",[22],−3.77%
same,"% inhibition, CB2 (h) (agonist radioligand)",[23],0%
same,"% inhibition, beta 2 (h) (antagonist radioligand)",[24],11.3086%
same,"% inhibition, MAO-A (antagonist radioligand)",[25],−9.13%
same,"% inhibition, kappa (KOP) (agonist radioligand)",[26],27.3513%
same,"% inhibition, delta (DOP) (h) (agonist radioligand)",[27],2.159%
same,"% inhibition, norepinephrine transporter (h) (antagonist radioligand)",[28],−6.471%
same,"% inhibition, beta 1 (h) (agonist radioligand)",[29],1.921%
same,"% inhibition, COX2(h)",[30],8.111%
same,"% inhibition, 5-HT2A (h) (agonist radioligand)",[31],−8.881%
same,"% inhibition, 5-HT2B (h) (agonist radioligand)",[32],5.374%
same,Log10 reduction from vehicle control,[33]; 20 mg/kg PO at 2 h,5.00 log10 CFU/g
same,"Thigh bacterial burden, Group Geometric mean",[33]; 20 mg/kg PO at 2 h,2.01 × 10^3 cfu/g
same,"Thigh bacterial burden, Log10 Group Geometric mean",[33]; 20 mg/kg PO at 2 h,3.30 log10 cfu/g
same,Log10 reduction from vehicle control,[33]; 50 mg/kg PO at 2 h,5.16 log10 CFU/g
same,"Thigh bacterial burden, Group Geometric mean",[33]; 50 mg/kg PO at 2 h,1.37 × 10^3 cfu/g
same,"Thigh bacterial burden, Log10 Group Geometric mean",[33]; 50 mg/kg PO at 2 h,3.14 log10 cfu/g
same,decrease of thigh bacterial burden compared to vehicle group,"[33]; 20 mg/kg/dose oral at 2 h, 20 mg/kg",5 log10 CFU/g and > 5 log10 CFU/g
same,decrease of thigh bacterial burden compared to vehicle group,"[33]; 50 mg/kg/dose oral at 2 h, 50 mg/kg",5.16 log10 CFU/g and > 5 log10 CFU/g
